Assay results as given in patent US10294271B1, “Compound, composition, and method for detecting caspase activity and/or apoptosis” (Vanderbilt University, priority 2013, dated 2019).

Assays:
DLD-1 cells = experiment: In vitro drug exposure, immunoblot of cleaved PARP and cleaved caspase-3, DLD-1 cells; type: cell-based, human; conditions: 24 h, 0-5000 nM
Protocol: (§1) For cell cycle analysis, SW620 and DLD-1 cells were propagated to 50% confluency in 6 cm plates and treated with AZD-1152-hydroxyquinazoline pyrazol anilide (HQPA) (Selleckchem), 0, 10, 100, 1000, or 5000 nM, for 24 or 48 hrs and prepared for flow cytometry as described (2). Propidium iodide (PI)-stained cells were analyzed by flow cytometry (FACStar PLUS, Becton-Dickinson). Data analysis was performed using CellQuest software (Becton-Dickinson) by manually gating to define and quantify sub-G0, G1, S, G2/M, and polyploidy populations. For assay of apoptosis following in vitro AZD-1152-HQPA exposure, SW620 and DLD-1 cells were seeded as sub-confluent monolayer cultures at a density of 1×10^4 per well into 96-well, black wall/bottom plates (BD Biosciences), allowed to adhere for 24 h, and treated with AZD-1152-HQPA, 0, 10, 50, 75, 100, or 1,000 nM, for 24 hrs. Apoptosis was assessed using the Caspase-Glo 3/7 reagent, in accordance with manufacturer's instructions, and analyzed using a Synergy 4 plate reader.
(§2) After 24 h of drug exposure, in vitro cell samples were collected from 10-cm plates. Medium was removed and cell monolayers washed with 1× phosphate buffered saline (PBS) followed by addition of […] of lysis buffer containing: 7 mL of CelLytic M lysis buffer (Sigma), mini protease inhibitor cocktail (Roche), and […] of phosphatase inhibitor cocktail 1 and 2 (Sigma). […]

SW620 cells = experiment: In vitro drug exposure, immunoblot of cleaved PARP and cleaved caspase-3, SW620 cells; type: cell-based, human; conditions: 24 h, 0-5000 nM
Protocol: as §1, §2

[1] = Lipophilicity (log P7.5) by reversed phase HPLC; type: physicochemical; conditions: for log P7.5: reversed phase HPLC, phosphate buffer pH 7.5, standard curve
Protocol: [^19F]FB-VAD-FMK and [^127I]IZ-VAD-FMK were synthesized as described below. VAD-FMK (American Peptide) and Z-VAD-FMK (TOCRIS Bioscience, #2163) were obtained commercially and used without further purification. Relative enzyme selectivity of [^19F]FB-VAD-FMK compared to parent peptide was evaluated as described below. Lipophilicity measurements (Log P7.5) of peptide derivatives were determined analogously to reported methods and described below.
Lipophilicity characterization of compounds (3) and (5), as well as Z-VAD-FMK, was performed through log P7.5 quantification using methodology analogous to those previously reported (1). Using reversed phase HPLC (Phenomenex Luna C18, 5 μm, 100 Å, 4.6×250 mm) and a (85:15) phosphate buffer (2 mM, pH 7.5) isocratic system (1 mL/min), log P7.5 values were calculated using an average of compound retention times from three individual runs and standard curve derived linear regression. The following standards with known log P values were used for curve development: catechol, aniline, benzene, bromobenze, toluene, ethylbenzene, 2-chlorobiphenyl, biphenyl, 1-chloronaphthalene, 1,2,3-trimethylbenzene, 1,2,3,4-tetrachlorobenzene, 1,2,4,5-tetrabromobenzene, and pentachlorobenzene.

caspase-7 = target: T1, caspase-7 (Homo sapiens, UniProt P55210); experiment: Enzyme selectivity assay, caspase-7; type: biochemical; conditions: fluorescence assay kit, 0.0003-10 μM
T1 construct: purchased BPS Bioscience
T1 sequence (P55210 24-198 limits assumed): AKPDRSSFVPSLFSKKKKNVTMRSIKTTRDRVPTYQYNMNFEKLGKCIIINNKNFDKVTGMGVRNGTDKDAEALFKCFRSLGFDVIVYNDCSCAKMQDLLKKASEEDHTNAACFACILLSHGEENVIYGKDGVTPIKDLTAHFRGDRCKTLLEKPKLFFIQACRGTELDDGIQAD
T1 sequence (P55210 207-303 limits assumed): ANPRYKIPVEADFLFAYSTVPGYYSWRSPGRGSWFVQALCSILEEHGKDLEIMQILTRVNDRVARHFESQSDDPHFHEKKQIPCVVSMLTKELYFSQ
Protocol: (§3) Relative enzyme inhibition of [^19F]FB-VAD-FMK was evaluated against caspase-3/6/7/8 using homogeneous caspase fluorescence assay kits (BPS Bioscience) and compared to parent peptide. Caspase inhibitor dissolved in caspase assay buffer and 1% DMSO (0.0003-10 μM) was combined with the caspase assay substrate and enzyme at room temperature for 30 min in accordance with the manufacturer's instructions. Fluorescence intensity was measured at an excitation of 360 nm and an emission of 460 nm using an Infinite M1000 microplate reader (Tecan).

caspase-6 = target: T2, caspase-6 (Homo sapiens, UniProt P55212); experiment: Enzyme selectivity assay, caspase-6; type: biochemical; conditions: fluorescence assay kit, 0.0003-10 μM
T2 construct: purchased BPS Bioscience
T2 sequence (P55212 24-179 limits assumed): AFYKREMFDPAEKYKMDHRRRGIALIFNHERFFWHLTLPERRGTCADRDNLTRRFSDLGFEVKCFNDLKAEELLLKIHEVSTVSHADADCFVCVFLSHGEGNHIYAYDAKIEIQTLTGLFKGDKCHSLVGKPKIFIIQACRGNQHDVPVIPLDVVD
T2 sequence (P55212 194-293 limits assumed): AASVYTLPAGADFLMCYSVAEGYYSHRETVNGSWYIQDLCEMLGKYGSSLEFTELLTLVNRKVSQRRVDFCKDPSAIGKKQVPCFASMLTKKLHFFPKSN
Protocol: as §3

caspase-3 = target: T3, caspase-3 (Homo sapiens, UniProt P42574); experiment: Enzyme selectivity assay, caspase-3; type: biochemical; conditions: fluorescence assay kit, 0.0003-10 μM
T3 construct: purchased BPS Bioscience
T3 sequence (P42574 29-175 limits assumed): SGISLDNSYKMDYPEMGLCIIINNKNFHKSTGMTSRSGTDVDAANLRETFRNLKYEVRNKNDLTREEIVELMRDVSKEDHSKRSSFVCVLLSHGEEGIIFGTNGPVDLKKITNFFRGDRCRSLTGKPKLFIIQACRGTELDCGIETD
T3 sequence (P42574 176-277 limits assumed): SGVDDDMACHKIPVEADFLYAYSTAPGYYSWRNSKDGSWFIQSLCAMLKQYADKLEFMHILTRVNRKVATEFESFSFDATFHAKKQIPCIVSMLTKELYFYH
Protocol: as §3

caspase-8 = target: T4, caspase-8 (Homo sapiens, UniProt Q14790); experiment: Enzyme selectivity assay, caspase-8; type: biochemical; conditions: fluorescence assay kit, 0.0003-10 μM; compared with caspases-3/6/7
T4 construct: purchased BPS Bioscience
T4 sequence (Q14790 217-374 limits assumed): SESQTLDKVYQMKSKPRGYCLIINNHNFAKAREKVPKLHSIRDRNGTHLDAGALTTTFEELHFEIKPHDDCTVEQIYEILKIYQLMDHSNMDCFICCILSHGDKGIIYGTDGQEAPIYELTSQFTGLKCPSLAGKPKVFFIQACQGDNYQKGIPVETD
T4 sequence (Q14790 385-479 limits assumed): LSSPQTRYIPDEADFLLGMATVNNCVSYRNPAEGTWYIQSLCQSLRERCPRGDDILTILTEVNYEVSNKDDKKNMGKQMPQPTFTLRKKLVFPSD
Protocol: as §3

[2] = tested on: caspase-3/7 activity in DiFi cells; experiment: Cellular caspase inhibition assay (Caspase-Glo 3/7); type: cell-based
Protocol: DiFi cells were propagated in Dulbecco's Modified Eagle's Medium (DMEM, Mediatech) and supplemented with 10% fetal bovine serum (Atlanta Biologicals) and 1 mg/mL gentamycin sulfate (Gibco) in a 95% humidity, 5% CO2, 37° C. atmosphere. Cells were seeded as sub-confluent monolayer cultures at a density of 1×10^4 per well into 96-well, black wall/bottom plates (BD Biosciences) and allowed to adhere for 24 h at 37° C. […] Cell media was then replaced with 1×PBS containing inhibitor (0, 10, 100, 1000, 10000 nM) and incubated at 37° C. for 30 min Inhibition was assessed using Caspase-Glo 3/7 reagent in accordance with the manufacturer's instructions. Luminescence was quantified using a Synergy 4 plate reader.

SW620 xenografts = experiment: Cleaved caspase-3 immunohistochemistry, SW620 xenografts; type: in vivo, athymic nude mice; conditions: after imaging Day 5
Protocol: Dual xenograft-bearing mice were sequentially injected with 1×10^7 SW620 and 5×10^6 DLD-1 human CRC cells subcutaneously onto the left or right hind limbs (respectively) of 5- to 6-week old female, athymic nude mice (Harlan Sprague-Dawley). Palpable tumors were observed 2-3 weeks following inoculation. Animals bearing SW620 and DLD-1 xenograft tumors were treated with vehicle or AZD-1152 (25 mg/kg, DMSO) via intraperitoneal injection once daily for five days, analogous to previous work. In vivo PET imaging studies were performed on Day 5, approximately 4-6 h after treatment. Tumor tissues were harvested immediately following conclusion of imaging, fixed for 24 h in 5% buffered formalin, and blocked in paraffin. Immunohistochemistry for cleaved caspase-3 (Cell Signaling, #9664) was carried out as previously described. Tissues were stained using standard H&E methods and reviewed by an expert gastrointestinal pathologist (M. Kay Washington). […] Semi-quantitative IHC analysis was performed using the image processing software ImageJ and is further described below. For semi-quantitative analysis of cleaved caspase-3 IHC, the public domain image processing software ImageJ was used to selectively measure the area of positive staining of each cohort through manual threshold manipulation of hue, pixel saturation, and brightness. […]

[3] = in vivo
[4] = set-up: species or system male C57BL/6 mice; conditions: mouse, in vivo, iv
Protocol: Studies involving animals were conducted in accordance with federal and institutional guidelines. Biodistribution studies were performed using male C57BL/6 mice. A detailed description of in vitro drug response studies that support the subsequently described animal models and drug therapies is provided below. For all imaging studies, mice were maintained under 2% isofluorane anesthesia in 100% oxygen at 2 L/min and kept warm via a circulating water heating pad for the duration of the PET scan. Small-animal PET imaging was performed using a dedicated Concorde Microsystems Focus 220 microPET scanner (Siemens Preclinical Solutions). Animals were administered 7.4-9.3 MBq of [^18F]FB-VAD-FMK via intravenous injection. Both static and dynamic data sets were acquired. For static scans, animals were allowed free access to food and water during a 20-40 minute uptake period, followed by anesthetization and a 20-minute image acquisition. Analogously, sixty minute dynamic acquisitions for all xenografts were initiated at the time of [^18F]FB-VAD-FMK injection. Radiochemical preparation of [^18F]FB-VAD-FMK (Fig. S3) was performed as described above. The in vivo biodistribution of [^18F]FB-VAD-FMK was evaluated by ex vivo tissue counting at 60 min post-administration and correlative PET imaging up to 75 min post-administration.

Compound: CCN(CCO)CCCOc1ccc2c(Nc3cc(CC(=O)Nc4cccc(F)c4)[nH]n3)ncnc2c1 [AZD-1152-HQPA, AZD-1152-hydroxyquinazoline pyrazol anilide]
- cleaved PARP and cleaved caspase-3 levels (DLD-1 cells): concentration-dependent increases
- cleaved PARP and cleaved caspase-3 levels (SW620 cells): concentration-dependent increases

Compound: benzyloxycarbonyl-Val-Ala-Asp(OMe)-fluoromethylketone [Z-VAD-FMK, obtained commercially (TOCRIS Bioscience, #2163), reference compound]
- log P7.5 [1]: 2.20

Compound: Val-Ala-Asp(OMe)-fluoromethylketone [VAD-FMK, American Peptide, reference compound]
- inhibition potency, caspase-7 (caspase-7): single micro molar potency
- inhibition potency, caspase-6 (caspase-6): single micro molar potency
- inhibition potency, caspase-3 (caspase-3): single micro molar potency
- inhibition potency, caspase-8 (caspase-8): slightly greater potency

Compound: COC(=O)C[C@H](NC(=O)[C@H](C)NC(=O)[C@@H](NC(=O)c1ccc(F)cc1)C(C)C)C(=O)CF [[^19F]FB-VAD-FMK]
- inhibition potency, caspase-7 (caspase-7): single micro molar potency
- inhibition of caspase-3/7 activity ([2]; DiFi cells in log-phase growth (untreated)): nanomolar concentrations
- inhibition of caspase-3/7 activity ([2]; DiFi cells, apoptosis induced by cetuximab 0.5 μg/mL 24 h): comparable efficacy to the parent peptide
- inhibition potency, caspase-6 (caspase-6): single micro molar potency
- inhibition potency, caspase-3 (caspase-3): single micro molar potency
- inhibition potency, caspase-8 (caspase-8): slightly greater potency
- times less lipophilic than Z-VAD-FMK and [^127I]IZ-VAD-FMK ([1]; from log P7.5 values): 50-100 times
- log P7.5 [1]: 1.41

Compound: CCN(CCCOc1ccc2c(Nc3cc(CC(=O)Nc4cccc(F)c4)n[nH]3)ncnc2c1)CCOP(=O)(O)O [AZD-1152]
- caspase-3 immunoreactivity compared to vehicle (SW620 xenografts): elevated caspase-3 immunoreactivity

Compound: [^18F]4-fluorobenzylcarbonyl-Val-Ala-Asp(OMe)-fluoromethylketone [[^18F]FB-VAD-FMK]
- parent compound in bile and urine samples [3]: ≥ 50%
- radioactivity in brain, lung, or bone [4]: Very little radioactivity
- tissue activity in kidneys and liver [4]: greatest activity

Compound: [^127I]4-iodobenzyloxycarbonyl-Val-Ala-Asp(OMe)-fluoromethylketone [[^127I]IZ-VAD-FMK]
- log P7.5 [1]: 2.38
